The results in this text go back to patent US20180370927A1, “MICROBIOCIDAL OXADIAZOLE DERIVATIVES” (SYNGENTA PARTICIPATIONS AG, priority 2015, published 2018).

Molecules are shown by their SMILES. Read-outs that look alike come from different tables or passages of the source.

Data set [1] relates to Puccinia recondita f. Sp. Tritici. The data set can be described thus: Puccinia recondita f. sp. tritici / wheat / leaf disc preventative (brown rust). In kind it is in vivo. As to conditions: foliar, read-out: disease control compared to untreated control leaf disks. In short, it runs like this: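 Wheat cv. Kanzler leaf segments on agar sprayed with formulated compound in water, inoculated with rust spores 1 day later. Incubated at 19° C, 75% rh, 12 h light/12 h dark; percent disease control versus untreated scored 7 to 9 days after application; tested at 200 ppm.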

Data set [2] relates to Glomerella lacenarium (Colletotrichum lacenarium). The data set can be described thus: Glomerella lacenarium (Colletotrichum lacenarium) liquid culture / cucumber / preventative (anthracnose). The format is cell-based. As to conditions: read-out: disease control (inhibition of growth, photometric) compared to untreated control. In short, it runs like this: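 Cryostored conidia in potato dextrose broth added to DMSO compound solution in microtiter plates, incubated at 24° C. Growth inhibition read photometrically 3 to 4 days after application, as percent control versus untreated check; compounds tested at 20 ppm.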

Data set [3] has as its system Puccinia recondita f. Sp. Tritici. In words: Puccinia recondita f. sp. tritici / wheat / leaf disc curative (brown rust). In kind it is in vivo. As to conditions: foliar, read-out: disease control compared to untreated control leaf disks. In short, it runs like this:
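Wheat cv. Kanzler leaf segments on agar were inoculated with spores, kept dark at 19° C, 75% RH, then sprayed with diluted formulated compound 1 day after inoculation (curative). Incubation continued at 19° C, 75% RH, 12 h light/12 h dark, with percent disease control versus untreated scored 6 to 8 days after application.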

The next data set relates to Phakopsora pachyrhizi. In words: Phakopsora pachyrhizi / soybean / leaf disc preventative (Asian soybean rust). In kind it is in vivo. Conditions: foliar, 200 ppm in the applied formulation, soybean leaf disks, assessed 12 to 14 days after application, read-out: disease control compared to untreated control leaf disks. In short, it runs like this:
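Soybean leaf discs on water agar were sprayed with formulated compound diluted in water, then inoculated one day later with spore suspension on the lower leaf surface. Held 24-36 h dark at 20° C., 75% RH, then 12 h light/day; percent disease control versus untreated scored 12 to 14 days after application.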

[4] abbreviates: 200 ppm in the applied formulation, wheat leaf segments, preventative, assessed 7 to 9 days after application.
Setting [5] is: 20 ppm in the applied formulation, liquid culture in PDB, 24° C., 3 to 4 days after application.
[6] abbreviates: 200 ppm in the applied formulation, wheat leaf segments, curative (applied 1 day after inoculation), assessed 6 to 8 days after application.

In the case of `O=C(NCc1ccc(-c2noc(C(F)(F)F)n2)cc1)C(=O)OC1CCSC1` (centres unmarked) [Compound 3.6, tetrahydrothiophen-3-yl 2-oxo-2-[[4-[5-(trifluoromethyl)-1,2,4-oxadiazol-3-yl]phenyl]methylamino]acetate], the melting point lay in the range of 102 to 105 °C. Further, the pest or weed control at 200 ppm in data set [1] (setting [4]) was at least 80%. The inhibition at 20 ppm in data set [2] (setting [5]) is at least 80%.
`CNC(=O)C(=O)N(Cc1ccc(-c2noc(C(F)(F)F)n2)cc1)OC` [Compound 4.35, N′-methoxy-N-methyl-N′-[[4-[5-(trifluoromethyl)-1,2,4-oxadiazol-3-yl]phenyl]methyl] oxamide]: the melting point was 87.7 to 88.8 °C. The pest or weed control at 200 ppm in data set [1] (setting [4]) is at least 80%. Also, in data set [3] (setting [6]), the pest or weed control at 200 ppm is at least 80%. Besides, the inhibition at 20 ppm in data set [2] (setting [5]) was at least 80%. The pest or weed control at 200 ppm in the data set on Phakopsora pachyrhizi is at least 80%.
Compound `CCOC(=O)C(=O)NCc1ccc(-c2noc(C(F)(F)F)n2)cc1` [Compound 3.9, ethyl 2-oxo-2-[[4-[5-(trifluoromethyl)-1,2,4-oxadiazol-3-yl]phenyl]methylamino] acetate] registered a melting point of 112 to 116 °C. Besides, the pest or weed control at 200 ppm in data set [1] (setting [4]) is at least 80%. Moreover, the inhibition at 20 ppm in data set [2] (setting [5]) is at least 80%. In addition, the pest or weed control at 200 ppm in the data set with Phakopsora pachyrhizi was at least 80%.
Take `CCOCCOC(=O)C(=O)NCc1ccc(-c2noc(C(F)(F)F)n2)cc1` [Compound 3.4, 2-ethoxyethyl 2-oxo-2-[[4-[5-(trifluoromethyl)-1,2,4-oxadiazol-3-yl]phenyl]methylamino]acetate]: the melting point was 112 to 114 °C. Moreover, the pest or weed control at 200 ppm in data set [1] (setting [4]) was at least 80%. For the same compound, in data set [2] (setting [5]), the inhibition at 20 ppm was at least 80%.
As to `CC1CCC(OC(=O)C(=O)NCc2ccc(-c3noc(C(F)(F)F)n3)cc2)C1` (centres unmarked) [Compound 3.5, (3-methylcyclopentyl) 2-oxo-2-[[4-[5-(trifluoromethyl)-1,2,4-oxadiazol-3-yl]phenyl]methylamino]acetate], the melting point was in the range of 112 to 116 °C. Moreover, the pest or weed control at 200 ppm in data set [1] (setting [4]) is at least 80%. For the same compound, in data set [2] (setting [5]), the inhibition at 20 ppm was at least 80%.
`CO/N=C(\C#N)C(=O)N(Cc1ccc(-c2noc(C(F)(F)F)n2)cc1)OC` [Compound 2.14, (1E)-N-methoxy-2-[methoxy-[[4-[5-(trifluoromethyl)-1,2,4-oxadiazol-3-yl]phenyl]methyl]amino]-2-oxo-acetimidoyl cyanide] had a melting point of 67 to 68 °C. Further, in data set [1], the pest or weed control at 200 ppm was at least 80%. The pest or weed control at 200 ppm in data set [3] is at least 80%. Also, the inhibition at 20 ppm in data set [2] is at least 80%.
As to `O=C(O)C(=O)NCc1ccc(-c2noc(C(F)(F)F)n2)cc1` [Compound 3.8, 2-oxo-2-[[4-[5-(trifluoromethyl)-1,2,4-oxadiazol-3-yl]phenyl]methylamino]acetic acid], the melting point was 162 to 173 °C. The pest or weed control at 200 ppm with Phakopsora pachyrhizi is at least 80%.
In the case of `CO/N=C(\C#N)C(=O)NCc1ccc(-c2noc(C(F)(F)F)n2)cc1` [Compound 2.13, (1E)-N-methoxy-2-oxo-2-[[4-[5-(trifluoromethyl)-1,2,4-oxadiazol-3-yl]phenyl]methylamino] acetimidoyl cyanide], the melting point lay within 130 to 131 °C. In data set [2], the inhibition at 20 ppm is at least 80%.
In the case of `CON(C)C(=O)C(=O)N(Cc1ccc(-c2noc(C(F)(F)F)n2)cc1)C1CC1` [Compound 4.105, N′-cyclopropyl-N-methoxy-N-methyl-N′-[[4-[5-(trifluoromethyl)-1,2,4-oxadiazol-3-yl]phenyl]methyl] oxamide], the pest or weed control at 200 ppm (in data set [1] (setting [4]); in data set [3] (setting [6]); in the data set with Phakopsora pachyrhizi) was at least 80% each time. Also, the inhibition at 20 ppm in data set [2] (setting [5]) is at least 80%.
On to `CON(Cc1ccc(-c2noc(C(F)(F)F)n2)cc1F)C(=O)C(=O)N(C)C` [Compound 4.95, N′-[[2-fluoro-4-[5-(trifluoromethyl)-1,2,4-oxadiazol-3-yl]phenyl]methyl]-N′-methoxy-N,N-dimethyl-oxamide], for which the pest or weed control at 200 ppm (in data set [1] (setting [4]); in data set [3] (setting [6]); in the data set with Phakopsora pachyrhizi) was at least 80% each time. In addition, the inhibition at 20 ppm in data set [2] (setting [5]) is at least 80%.
In the case of `O=C(NCc1ccc(-c2noc(C(F)(F)F)n2)c(F)c1)C(=O)c1ccco1` [Compound 1.79, N-[[3-fluoro-4-[5-(trifluoromethyl)-1,2,4-oxadiazol-3-yl]phenyl]methyl]-2-(2-furyl)-2-oxo-acetamide], the pest or weed control at 200 ppm (in data set [1] (setting [4]); in data set [3] (setting [6]); in the data set on Phakopsora pachyrhizi) was at least 80% each time. In data set [2] (setting [5]), the inhibition at 20 ppm was at least 80%.
Regarding `CCN(Cc1ccc(-c2noc(C(F)(F)F)n2)cc1)C(=O)C(=O)N(C)OC` [Compound 4.106, N′-ethyl-N-methoxy-N-methyl-N′-[[4-[5-(trifluoromethyl)-1,2,4-oxadiazol-3-yl]phenyl]methyl] oxamide], the pest or weed control at 200 ppm (in data set [1] (setting [4]); in data set [3] (setting [6]); in the data set on Phakopsora pachyrhizi) was at least 80% in each case. For the same compound, the inhibition at 20 ppm in data set [2] (setting [5]) was at least 80%.
Consider `CON(Cc1ccc(-c2noc(C(F)(F)F)n2)cc1)C(=O)C(=O)c1ccco1` [Compound 1.90, 2-(2-furyl)-N-methoxy-2-oxo-N-[[4-[5-(trifluoromethyl)-1,2,4-oxadiazol-3-yl]phenyl]methyl]acetamide], for which the pest or weed control at 200 ppm (in data set [1] (setting [4]); in data set [3] (setting [6]); in the data set on Phakopsora pachyrhizi) was at least 80% each time. Moreover, the inhibition at 20 ppm in data set [2] (setting [5]) was at least 80%.
In the case of `CN(C)C(=O)C(=O)N(C)Cc1ccc(-c2noc(C(F)(F)F)n2)cc1` [Compound 4.29, N,N,N′-trimethyl-N'-[[4-[5-(trifluoromethyl)-1,2,4-oxadiazol-3-yl]phenyl]methyl] oxamide], the pest or weed control at 200 ppm (in data set [1] (setting [4]); in data set [3] (setting [6]); in the data set with Phakopsora pachyrhizi) was at least 80% in each case. Besides, the inhibition at 20 ppm in data set [2] (setting [5]) is at least 80%.
Take `CC(C)(C)NC(=O)C(=O)NCc1ccc(-c2noc(C(F)(F)F)n2)cc1` [Compound 4.56, N′-tert-butyl-N-[[4-[5-(trifluoromethyl)-1,2,4-oxadiazol-3-yl]phenyl]methyl] oxamide]: the pest or weed control at 200 ppm (in data set [1] (setting [4]); in data set [3] (setting [6]); in the data set on Phakopsora pachyrhizi) was at least 80% in each case. In data set [2] (setting [5]), the inhibition at 20 ppm was at least 80%.
In the case of `O=C(NCc1ccc(-c2noc(C(F)(F)F)n2)cc1)C(=O)c1ccccc1` [Compound 1.75, 2-oxo-2-phenyl-N-[[4-[5-(trifluoromethyl)-1,2,4-oxadiazol-3-yl]phenyl]methyl]acetamide], the pest or weed control at 200 ppm (in data set [1] (setting [4]); in data set [3] (setting [6]); in the data set with Phakopsora pachyrhizi) was at least 80% throughout. In addition, the inhibition at 20 ppm in data set [2] (setting [5]) is at least 80%.
For the compound `CO/N=C(\C)C(=O)N(Cc1ccc(-c2noc(C(F)(F)F)n2)cc1)OC` [Compound 2.10, (2E)-N-methoxy-2-methoxyimino-N-[[4-[5-(trifluoromethyl)-1,2,4-oxadiazol-3-yl]phenyl]methyl] propanamide], the pest or weed control at 200 ppm (in data set [1] (setting [4]); in data set [3] (setting [6]); with Phakopsora pachyrhizi) was at least 80% in each case. For the same compound, in data set [2] (setting [5]), the inhibition at 20 ppm is at least 80%.
As for `CCON(Cc1ccc(-c2noc(C(F)(F)F)n2)cc1)C(=O)C(=O)CC` [Compound 1.29, N-ethoxy-2-oxo-N-[[4-[5-(trifluoromethyl)-1,2,4-oxadiazol-3-yl]phenyl]methyl]butanamide], the pest or weed control at 200 ppm (in data set [1] (setting [4]); in data set [3] (setting [6]); with Phakopsora pachyrhizi) was at least 80% each time. Besides, the inhibition at 20 ppm in data set [2] (setting [5]) was at least 80%.
As for `CCCC(=O)C(=O)N(Cc1ccc(-c2noc(C(F)(F)F)n2)cc1)OC` [Compound 1.3, N-methoxy-2-oxo-N-[[4-[5-(trifluoromethyl)-1,2,4-oxadiazol-3-yl]phenyl]methyl]pentanamide], the pest or weed control at 200 ppm (in data set [1] (setting [4]); in data set [3] (setting [6]); with Phakopsora pachyrhizi) was at least 80% in each case. Moreover, in data set [2] (setting [5]), the inhibition at 20 ppm is at least 80%.
With `Cc1cc(-c2noc(C(F)(F)F)n2)ccc1CNC(=O)C(=O)N(C)C` [Compound 4.97, N′,N′-dimethyl-N-[[2-methyl-4-[5-(trifluoromethyl)-1,2,4-oxadiazol-3-yl]phenyl]methyl] oxamide], the pest or weed control at 200 ppm (in data set [1] (setting [4]); in data set [3] (setting [6]); in the data set on Phakopsora pachyrhizi) was at least 80% throughout. The inhibition at 20 ppm in data set [2] (setting [5]) is at least 80%.

As usually defined, the inhibition is the percentage by which the read-out fell short of the control. In general, melting point refers to the temperature, or range, at which the solid turns liquid.
